One molecule from patent publication US20160002267A1, “BENZYL-SUBSTITUTED PYRAZOLOPYRIDINES AND USE THEREOF” (BAYER PHARMA AKTIENGESELLSCHAFT, priority 2013, published 2016) can be followed below.

The target in the assay is T1, guanylate cyclase (Rattus norvegicus, UniProt P19686+P20595).
T1 construct: expressed in transfected cells; host or cells: recombinant reporter cell line
T1 sequence (P20595 1-619): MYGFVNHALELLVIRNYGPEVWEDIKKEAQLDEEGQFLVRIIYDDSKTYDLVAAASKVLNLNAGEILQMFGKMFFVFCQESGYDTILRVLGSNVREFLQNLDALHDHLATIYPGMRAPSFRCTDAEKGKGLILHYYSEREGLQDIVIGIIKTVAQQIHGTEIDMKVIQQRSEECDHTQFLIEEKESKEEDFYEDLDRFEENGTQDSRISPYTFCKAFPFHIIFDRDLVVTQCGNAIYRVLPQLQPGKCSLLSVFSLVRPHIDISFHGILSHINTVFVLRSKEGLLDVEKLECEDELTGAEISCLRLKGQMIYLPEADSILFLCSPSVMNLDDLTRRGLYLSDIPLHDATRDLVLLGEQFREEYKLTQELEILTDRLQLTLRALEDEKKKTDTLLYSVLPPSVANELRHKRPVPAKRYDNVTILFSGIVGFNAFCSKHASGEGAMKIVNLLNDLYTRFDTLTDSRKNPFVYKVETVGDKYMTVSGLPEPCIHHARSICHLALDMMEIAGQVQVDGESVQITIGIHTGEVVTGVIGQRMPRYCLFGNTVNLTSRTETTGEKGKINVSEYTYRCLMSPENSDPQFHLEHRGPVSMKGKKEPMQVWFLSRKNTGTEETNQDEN
T1 sequence (P19686 1-690): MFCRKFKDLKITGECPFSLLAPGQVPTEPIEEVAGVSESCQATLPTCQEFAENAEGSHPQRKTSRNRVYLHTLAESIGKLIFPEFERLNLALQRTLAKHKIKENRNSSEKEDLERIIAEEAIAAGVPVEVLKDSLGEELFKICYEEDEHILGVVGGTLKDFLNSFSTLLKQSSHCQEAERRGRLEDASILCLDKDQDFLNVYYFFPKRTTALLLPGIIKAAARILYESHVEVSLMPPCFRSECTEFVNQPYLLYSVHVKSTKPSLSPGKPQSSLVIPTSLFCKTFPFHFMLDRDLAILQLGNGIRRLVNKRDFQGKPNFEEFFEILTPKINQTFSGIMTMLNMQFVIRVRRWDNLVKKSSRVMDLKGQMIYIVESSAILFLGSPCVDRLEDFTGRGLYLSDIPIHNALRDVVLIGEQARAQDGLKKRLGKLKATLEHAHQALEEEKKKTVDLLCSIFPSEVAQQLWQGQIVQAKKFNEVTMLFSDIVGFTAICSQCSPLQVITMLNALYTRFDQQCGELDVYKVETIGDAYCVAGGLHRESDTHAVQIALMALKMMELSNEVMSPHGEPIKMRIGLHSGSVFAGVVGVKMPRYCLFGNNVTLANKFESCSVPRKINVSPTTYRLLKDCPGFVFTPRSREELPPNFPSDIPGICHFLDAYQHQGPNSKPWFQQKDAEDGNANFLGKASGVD
Put plainly: Effect on a recombinant guanylate cyclase reporter cell line. The format is cell-based. The procedure:
The cellular activity of the compounds according to the invention is determined using a recombinant guanylate cyclase reporter cell line, as described in F. Wunder et al., Anal. Biochem. 339, 104-112 (2005).

Regarding `CC1(C(F)(F)F)C(=O)Nc2nc(-c3nn(Cc4ccccc4F)c4ncc(F)cc34)nc(NCCC(F)(F)F)c21` (single isomer, unassigned) [Example 1-2, 2-[5-Fluoro-1-(2-fluorobenzyl)-1H-pyrazolo[3,4-b]pyridin-3-yl]-5-methyl-5-(trifluoromethyl)-4-[(3,3,3-trifluoropropyl)amino]-5,7-dihydro-6H-pyrrolo[2,3-d]pyrimidin-6-one], the “MEC (minimum effective concentration)” value was 0.3 µM.
